Reference: a melting point compilation (Tetko et al.; mined from patent text by program, amines drawn as free bases though some values may be those of a salt)

| SMILES | melting point [°C] |
| --- | --- |
| CCCOc1nc(C(F)(F)F)cc(=O)n1-c1cc(O)c(Cl)cc1F | 122 to 123 |
| CCCN(CCC)C1Cc2c[nH]c3ccc(C(=O)CC)c(c23)C1 (stereo unspecified) | 149 to 150 |
| OC(CSc1ccc(Cl)cc1)Cn1ccnc1 (stereo unspecified) | 108 to 109 |
| Cc1cccc(-c2nc3cccnn3c2-c2ccnc(NCC(C)(C)C)c2)c1 | 157 to 158 |
| CNc1nc(N=[N+]=[N-])ncc1C#N | 225 to 230 |
| BrCc1ccc2nc(-c3ccccc3)c(-c3ccccc3)nc2c1 | 146 to 148 |
| COC(=O)c1ccc(NC(=O)c2cc(C(C)C)c(C(C)C)o2)cc1 | 198 to 200 |
| CCOC(=O)c1cc(N=Cc2ccccc2)ccc1O | 63 to 65 |
| COc1cc2c(Nc3ccc(Cl)cc3F)ncnc2cc1OCCCSc1nccn1C | 199 to 201 |
| Cc1ncoc1C(C)(N)c1ccoc1 (stereo unspecified) | 82.5 to 83.5 |
| CCCCc1oc2ccccc2c1C(O)c1ccc(-c2ccc(O)cc2)cc1 (stereo unspecified) | 47 to 49 |
| CCCCN1NC(=O)CC2CCc3cc(N)ccc3C21 (stereo unspecified) | 140 to 142 |
| NC(=O)C1=C(S(=O)Cc2ccccc2)CCC1 (stereo unspecified) | 174 |
| O=C(O)c1ccc2cn(C3CCCC3)nc2c1 | 190 to 193 |
| CCOC(=O)c1cc(=O)cc(-c2ccccc2Cl)o1 | 104 to 106 |
| O=C(c1ccccc1Cl)c1cc(Cl)ccc1C#CCN1C(=O)c2ccccc2C1=O | 144 to 145 |
| CCN(CC)CCNC(=O)c1ccc(S(N)(=O)=O)cc1 | 174 to 176 |
| CCCN(CCC)CCc1ccc(O)c2nc[nH]c12 | 135 to 139 |
| CC(O)C1CCC2C3CCC4=CC(O)CCC4(C)C3CCC12C (stereo unspecified) | 169 to 170 |
| COc1cc(N)c(Cl)cc1C(=O)NC1CCN(CCC(O)C(=O)c2ccc(F)cc2)CC1OC (stereo unspecified) | 146 |
| Cc1nc(N2CCN(CC(C)C)C2=O)sc1C(N)=O | 212 to 215 |
| CCC1(N2C(=O)c3ccccc3C2=O)C(=O)NC(=O)N(C2CCCCC2)C1=O (stereo unspecified) | 248 to 253 |
| O=C(NC(=O)c1ccccc1Cl)Nc1cnc(C(F)(F)F)cn1 | 219 to 220 |
| Cn1c2c(c3cc(F)ccc31)C(=O)NCC2 | 200 to 202 |
| COC(=O)C(Cc1ccc(OCCn2ccc3cccnc32)cc1)C(=O)O (stereo unspecified) | 120 to 122 |

| SMILES | melting point [°C] |
| --- | --- |
| CC(=O)OC/C=C(\C)CCc1c(C)c(O)c(C)c(C)c1O | 94.5 to 96 |
| Cc1nc2ccccc2n1Cc1ccc(C(=O)O)c2ccccc12 | 292 to 293 |
| CC1(C)c2c(ccc3cc(C#N)c(Cn4cncn4)cc23)OC1O (stereo unspecified) | 219 to 222 |
| CC(=O)NCC(=O)Nn1cccc1C(=O)c1ccccc1F | 146 to 147 |
| O=C1C(c2cc3c(cc2O)OCC3)c2ccc(F)cc2N1C(c1ccccc1)c1ccccc1 (stereo unspecified) | 121 to 123 |
| NC1=NC(c2ccc(OC(F)(F)F)cc2)(c2cccc(-c3cccnc3F)c2)C2=NOCCN12 (stereo unspecified) | 102 to 117 |
| COC1C(O)C(CO)OC1n1cnc2c(=O)[nH]c(N)nc21 (stereo unspecified) | 236 to 238 |
| c1ccc2c(c1)Cn1cccc1CN2 | 145 to 148 |
| NC1=NS(=O)(=O)Nc2cccc(OC3CCCCC3)c21 | 215 to 216 |
| O=C1CCCN1CC1CCN(c2nc(C(F)(F)F)ncc2OCc2ccccc2)CC1 | 155 to 157 |
| CC(C)N(O)C(=O)Nc1ccc(S(C)=O)cc1 (stereo unspecified) | 136 |
| O=S1(=O)N=CN(C2CCCCC2)c2ccc(Cl)cc21 | 209 to 211 |
| COCC(C)Oc1ccc2c(c1)c(-c1cc3cccnc3[nH]1)cn2C (stereo unspecified) | 150 to 151 |
| CNC(=O)c1ccccc1Nc1nc(Nc2ccc3c(c2)CCN(S(C)(=O)=O)CC3)ncc1Cl | 251 to 256 |
| CO[C@@H]1[C@@H](OC)[C@H](C)O[C@@H](ON(Cc2ccc(-c3ncn(-c4ccc(OC(F)(F)F)cc4)n3)cc2)C(=O)CCC(=O)O)[C@@H]1OC | 61 to 75 |
| NC(CCOc1ccncc1)C(=O)c1ccccc1CO (stereo unspecified) | 108 to 109 |
| COC1=NS(=O)N=C1NCCCCc1ncc(Br)cc1N (stereo unspecified) | 118 to 120 |
| COc1ccc2c(c1)CCC(C1CCC(O)C1(C)CC(C)(C)O)C2 (stereo unspecified) | 123 to 125 |
| CC1(C)CC(OC(=O)c2ccccc2)CC(C)(C)N1OCC=Cc1ccccc1 | 115 to 116 |
| COC(=O)c1cc(CO)ccc1OCc1nc(-c2ccco2)oc1C | 131 to 132 |
| O=C1C=CC(=O)c2c1cccc2[N+](=O)[O-] | 161 |
| CCC(=O)Oc1cc(-c2nc3cc(C(=O)O)ccc3oc2=O)cc([N+](=O)[O-])c1OC(=O)CC | 192 to 194 |
| O=C(Nc1nc2ccc(C(F)(F)F)cc2s1)c1c(F)cccc1Cl | 265 to 270 |
| Nc1ncc(-c2ccccc2)nc1Oc1ccccc1 | 129 to 131 |

Results, then the molecule that gave them:

| melting point [°C] | SMILES |
| --- | --- |
| 108 to 110 | CC(C)OC(=O)Cc1nc(-c2ccc(F)cc2)oc1-c1ccsc1 |
| 154 | COc1cccc(NC(=O)c2ccn3c2CSC3c2cccnc2)n1 (stereo unspecified) |
| 120 | O=S1(=O)c2cccc3cccc(c23)N1CCCN1CCN(c2ccc(Cl)cc2)CC1 |
| 90 to 93 | CCCc1c(OCc2ccccc2C(=O)OC)ccc(C(C)=O)c1O |
| 19 to 20 | CCCCCCN(O)C(=O)N(C)C |
| 243 to 244 | CCN1c2ncc(CCc3ccnc(O)c3)cc2C(=O)N(C)c2ccc(Cl)nc21 |
| 157 to 158 | Cc1nc(N2CCN(Cc3ccccc3)C2=O)sc1C(=O)NCc1ccc(F)cc1F |
| 95 to 100 | COc1cc(C(=O)N2CCC(CCN3CCC(Nc4nc5ccccc5n4Cc4nccn4Cc4ccccc4)CC3)(c3ccc(F)cc3)C2)cc(OC)c1OC (stereo unspecified) |
| 210 | CS(=O)(=O)C(=C1CN(C(c2ccccc2)c2ccccc2)C1)c1cccc(F)c1 |
| 232 to 234 | O=c1ccccn1[C@@H]1c2ccccc2OCC[C@H]1O (relative stereo) |
| 185 | CC(C)(c1ccc(C(O)(C(F)(F)F)C(F)(F)F)cc1)S(=O)(=O)c1ccccc1 |
| 138 | COc1cc(C=CC(=O)Nc2cnc3ccc(C(C)C)cc3c2-c2ccccc2Cl)cc(OC)c1OC(C)=O |
| 79 to 82 | CS(=O)(=O)Nc1ccc(/C=C\COCCCCCCNCC(O)c2cc(O)cc(O)c2)cc1 (stereo unspecified) |
| 178 to 179 | COc1cc2c(cc1OC)S(=O)c1ccc(Cl)cc1C(N1CCN(C)CC1)C2 (stereo unspecified) |
| 85 to 86 | Cc1c(C)c2c(c(C)c1NC(=O)CCCOCc1ccccc1)C(c1ccc(C(C)C)cc1)CO2 (stereo unspecified) |
| 122 to 124 | CC(=O)Nc1ccc(-n2nc(C(=O)NC(C)(C)C)c3c2C2CCC3C2)cc1 (stereo unspecified) |
| 161 to 167 | COc1cccc(CCNC(=S)Nc2nc3ccccc3[nH]2)c1 |
| 228 to 231 | COC(=O)Nc1nc2cc(SCC3CC3)ccc2[nH]1 |
| 89 to 90 | CCCOc1ccc(COCC)cc1-c1nc2c(CCC)nn(C)c2c(=O)[nH]1 |
| 202 to 203 | CCc1cnc2c(NC(=O)c3c(Cl)cccc3Cl)cccc2c1CN1CCN(C)C1=O |
| 164 to 166 | Nc1ccc(C23CC(C2)C(=O)N(Cc2ccccc2)C3=O)cc1 |
| 245 to 247 | O=C(O)C1(c2ccc(Nc3nc(N4CCCC4)nc4c3CCC4)cc2)CCC1 |
